Source: PubChem BioAssay AID624438 (The Scripps Research Institute Molecular Screening Center, 2012)
The source made the active and inactive calls.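 The calls were made as follows: active = IC50 below 50 µM against the phosphatase PP2C-alpha; inactive = IC50 at or above 50 µM.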

Target: Protein phosphatase 1A (Homo sapiens) (UniProt P35813)
Test: inhibition of PP2C-alpha OMFP dephosphorylation – biochemical, fluorescence, OMFP substrate, round 5, selectivity assay for PP5 inhibitor project, late-stage follow-up (AID 624438)
Details: purified MBP-PP2C-alpha

Chain of Protein phosphatase 1A (Homo sapiens) (P35813 whole entry, looked up): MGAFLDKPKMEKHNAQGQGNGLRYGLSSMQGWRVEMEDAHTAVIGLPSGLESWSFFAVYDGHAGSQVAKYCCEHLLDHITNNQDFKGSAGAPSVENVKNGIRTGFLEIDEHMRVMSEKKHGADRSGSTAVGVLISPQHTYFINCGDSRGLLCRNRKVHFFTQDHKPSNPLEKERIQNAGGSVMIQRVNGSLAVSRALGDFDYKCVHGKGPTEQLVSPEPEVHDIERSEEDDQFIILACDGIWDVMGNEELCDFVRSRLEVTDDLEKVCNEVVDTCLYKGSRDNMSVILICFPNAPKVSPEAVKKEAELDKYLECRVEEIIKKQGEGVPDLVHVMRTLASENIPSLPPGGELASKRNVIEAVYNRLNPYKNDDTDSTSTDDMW

CC(C)Oc1ccccc1-c1n[nH]nc1C(=O)O
IC50: > 1000 µM (inactive)
